According to ChEMBL document CHEMBL4052734, “Synthesis of novel 2-pyrazoline analogues with potent anti-inflammatory effect mediated by inhibition of phospholipase A2: Crystallographic, in silico docking and QSAR analysis” (Bioorg Med Chem Lett, 2017):
Values after ≈ are worked out from the molar mass of the structure shown. Active and inactive are the calls of the source. The rule behind the calls is not given here.

The compounds below were run on Bacillus subtilis (assay: Antibacterial activity against Bacillus subtilis MTCC 441 after 24 hrs by serial dilution method). Settings: MTCC 441, 24 h.
Format: functional

| Compound | MIC90 [µg/mL] |
| --- | --- |
| COc1ccccc1C1=NN(c2cccc(Cl)c2)C(c2cccc(Cl)c2Cl)C1 (stereo not given) | 140 (≈ 324 µM) |
| COc1cccc(C2=NN(c3cccc(Cl)c3)C(c3cccc(Cl)c3Cl)C2)c1 (stereo not given) | 125 (≈ 290 µM) |
| Cc1ccc(C2=NN(c3ccccc3)C(c3cccc(Cl)c3Cl)C2)cc1 (stereo not given) | 120 (≈ 315 µM) |
| Fc1ccc(C2=NN(c3cccc(Cl)c3)C(c3cccc(Cl)c3Cl)C2)cc1 (stereo not given) | 120 (≈ 286 µM) |
| Clc1cccc(N2N=C(c3ccc4c(c3)OCO4)CC2c2cccc(Cl)c2Cl)c1 (stereo not given) | 140 (≈ 314 µM) |
| COc1ccccc1C1=NN(c2ccccc2)C(c2cccc(Cl)c2Cl)C1 (stereo not given) | 125 (≈ 315 µM) |
| Clc1ccc(C2=NN(c3ccccc3)C(c3cccc(Cl)c3Cl)C2)cc1 (stereo not given) | 125 (≈ 311 µM) |

Each compound was assayed on Escherichia coli (assay: Antibacterial activity against Escherichia coli MTCC 1687 after 24 hrs by serial dilution method). Settings: MTCC 1687, 24 h.
Format: functional

| Compound | MIC90 [µg/mL] |
| --- | --- |
| COc1ccccc1C1=NN(c2cccc(Cl)c2)C(c2cccc(Cl)c2Cl)C1 (stereo not given) | 40 (≈ 92.6 µM) |
| COc1cccc(C2=NN(c3cccc(Cl)c3)C(c3cccc(Cl)c3Cl)C2)c1 (stereo not given) | 30 (≈ 69.5 µM) |
| Cc1ccc(C2=NN(c3ccccc3)C(c3cccc(Cl)c3Cl)C2)cc1 (stereo not given) | 60 (≈ 157 µM) |
| Fc1ccc(C2=NN(c3cccc(Cl)c3)C(c3cccc(Cl)c3Cl)C2)cc1 (stereo not given) | 25 (≈ 59.6 µM) |
| Clc1cccc(N2N=C(c3ccc4c(c3)OCO4)CC2c2cccc(Cl)c2Cl)c1 (stereo not given) | 130 (≈ 292 µM) |
| COc1ccccc1C1=NN(c2ccccc2)C(c2cccc(Cl)c2Cl)C1 (stereo not given) | 50 (≈ 126 µM) |
| Clc1ccc(C2=NN(c3ccccc3)C(c3cccc(Cl)c3Cl)C2)cc1 (stereo not given) | 20 (≈ 49.8 µM) |

These compounds were tested against T1, Basic phospholipase A2 VRV-PL-VIIIa (Daboia russelii) (UniProt P59071) (assay: Inhibition of Vipera russelii venom sPLA2 using DMPC as substrate at 10.214 uM preincubated for 2 mins followed by substrate addition measured after 30 mins in presence of 1 to 12 mM CaCl2). Settings: not given.
T1 sequence (whole entry): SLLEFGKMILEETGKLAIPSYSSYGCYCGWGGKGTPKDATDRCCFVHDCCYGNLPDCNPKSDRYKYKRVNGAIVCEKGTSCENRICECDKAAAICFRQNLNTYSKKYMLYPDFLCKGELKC

| Compound | inhibition |
| --- | --- |
| Clc1ccc(C2=NN(c3ccccc3)C(c3cccc(Cl)c3Cl)C2)cc1 (stereo not given) | Active |

Each compound was assayed against T2, Basic phospholipase A2 VRV-PL-VIIIa (Daboia russelii, UniProt P59071) (assay: (§1) Inhibition of Vipera russelii venom sPLA2 using DMPC as substrate preincubated for 2 mins followed by substrate addition measured after 30 mins). Settings: not given.
T2 sequence (P59071 whole entry): T1 sequence (whole entry)

| Compound | IC50 [µM] |
| --- | --- |
| COc1ccccc1C1=NN(c2cccc(Cl)c2)C(c2cccc(Cl)c2Cl)C1 (stereo not given) | 35.1 |
| COc1cccc(C2=NN(c3cccc(Cl)c3)C(c3cccc(Cl)c3Cl)C2)c1 (stereo not given) | 30.1 |
| Cc1ccc(C2=NN(c3ccccc3)C(c3cccc(Cl)c3Cl)C2)cc1 (stereo not given) | 21.7 |
| Fc1ccc(C2=NN(c3cccc(Cl)c3)C(c3cccc(Cl)c3Cl)C2)cc1 (stereo not given) | 19.2 |
| Clc1cccc(N2N=C(c3ccc4c(c3)OCO4)CC2c2cccc(Cl)c2Cl)c1 (stereo not given) | 49.8 |
| COc1ccccc1C1=NN(c2ccccc2)C(c2cccc(Cl)c2Cl)C1 (stereo not given) | 30.3 |
| Clc1ccc(C2=NN(c3ccccc3)C(c3cccc(Cl)c3Cl)C2)cc1 (stereo not given) | 10.2 |

Each compound was assayed against T1, Basic phospholipase A2 VRV-PL-VIIIa (Daboia russelii) (assay: as §1). Settings: not given.

| Compound | inhibition |
| --- | --- |
| COc1ccccc1C1=NN(c2cccc(Cl)c2)C(c2cccc(Cl)c2Cl)C1 (stereo not given) | Dose-dependent effect |
| COc1cccc(C2=NN(c3cccc(Cl)c3)C(c3cccc(Cl)c3Cl)C2)c1 (stereo not given) | Dose-dependent effect |
| Cc1ccc(C2=NN(c3ccccc3)C(c3cccc(Cl)c3Cl)C2)cc1 (stereo not given) | Dose-dependent effect |
| Fc1ccc(C2=NN(c3cccc(Cl)c3)C(c3cccc(Cl)c3Cl)C2)cc1 (stereo not given) | Dose-dependent effect |
| Clc1cccc(N2N=C(c3ccc4c(c3)OCO4)CC2c2cccc(Cl)c2Cl)c1 (stereo not given) | Dose-dependent effect |
| COc1ccccc1C1=NN(c2ccccc2)C(c2cccc(Cl)c2Cl)C1 (stereo not given) | Dose-dependent effect |
| Clc1ccc(C2=NN(c3ccccc3)C(c3cccc(Cl)c3Cl)C2)cc1 (stereo not given) | Dose-dependent effect |

The compounds below were run on Staphylococcus aureus (assay: Antibacterial activity against Staphylococcus aureus MTCC 737 after 24 hrs by serial dilution method). Settings: MTCC 737, 24 h.
Format: functional

| Compound | MIC90 [µg/mL] |
| --- | --- |
| COc1ccccc1C1=NN(c2cccc(Cl)c2)C(c2cccc(Cl)c2Cl)C1 (stereo not given) | 40 (≈ 92.6 µM) |
| COc1cccc(C2=NN(c3cccc(Cl)c3)C(c3cccc(Cl)c3Cl)C2)c1 (stereo not given) | 50 (≈ 116 µM) |
| Cc1ccc(C2=NN(c3ccccc3)C(c3cccc(Cl)c3Cl)C2)cc1 (stereo not given) | 60 (≈ 157 µM) |
| Fc1ccc(C2=NN(c3cccc(Cl)c3)C(c3cccc(Cl)c3Cl)C2)cc1 (stereo not given) | 40 (≈ 95.3 µM) |
| Clc1cccc(N2N=C(c3ccc4c(c3)OCO4)CC2c2cccc(Cl)c2Cl)c1 (stereo not given) | 120 (≈ 269 µM) |
| COc1ccccc1C1=NN(c2ccccc2)C(c2cccc(Cl)c2Cl)C1 (stereo not given) | 40 (≈ 101 µM) |
| Clc1ccc(C2=NN(c3ccccc3)C(c3cccc(Cl)c3Cl)C2)cc1 (stereo not given) | 15 (≈ 37.3 µM) |

These compounds were tested on Candida albicans (assay: Antifungal activity against Candida albicans MTCC 227 after 72 hrs by serial dilution method). Settings: not given.
Format: functional

| Compound | MIC90 [µg/mL] |
| --- | --- |
| NYSTATIN | 20 |

Same assay, conditions: MTCC 227, 72 h

| Compound | MIC90 [µg/mL] |
| --- | --- |
| COc1ccccc1C1=NN(c2cccc(Cl)c2)C(c2cccc(Cl)c2Cl)C1 (stereo not given) | 40 (≈ 92.6 µM) |
| COc1cccc(C2=NN(c3cccc(Cl)c3)C(c3cccc(Cl)c3Cl)C2)c1 (stereo not given) | 50 (≈ 116 µM) |
| Cc1ccc(C2=NN(c3ccccc3)C(c3cccc(Cl)c3Cl)C2)cc1 (stereo not given) | 60 (≈ 157 µM) |
| Fc1ccc(C2=NN(c3cccc(Cl)c3)C(c3cccc(Cl)c3Cl)C2)cc1 (stereo not given) | 50 (≈ 119 µM) |
| Clc1cccc(N2N=C(c3ccc4c(c3)OCO4)CC2c2cccc(Cl)c2Cl)c1 (stereo not given) | 130 (≈ 292 µM) |
| COc1ccccc1C1=NN(c2ccccc2)C(c2cccc(Cl)c2Cl)C1 (stereo not given) | 30 (≈ 75.5 µM) |
| Clc1ccc(C2=NN(c3ccccc3)C(c3cccc(Cl)c3Cl)C2)cc1 (stereo not given) | 15 (≈ 37.3 µM) |

What follows are compounds tested on Aspergillus flavus (assay: Antifungal activity against Aspergillus flavus after 72 hrs by serial dilution method). Settings: not given.
Format: functional

| Compound | MIC90 [µg/mL] |
| --- | --- |
| COc1ccccc1C1=NN(c2cccc(Cl)c2)C(c2cccc(Cl)c2Cl)C1 (stereo not given) | 130 (≈ 301 µM) |
| COc1cccc(C2=NN(c3cccc(Cl)c3)C(c3cccc(Cl)c3Cl)C2)c1 (stereo not given) | 130 (≈ 301 µM) |
| Cc1ccc(C2=NN(c3ccccc3)C(c3cccc(Cl)c3Cl)C2)cc1 (stereo not given) | 120 (≈ 315 µM) |
| Fc1ccc(C2=NN(c3cccc(Cl)c3)C(c3cccc(Cl)c3Cl)C2)cc1 (stereo not given) | 130 (≈ 310 µM) |
| NYSTATIN | 25 |
| Clc1cccc(N2N=C(c3ccc4c(c3)OCO4)CC2c2cccc(Cl)c2Cl)c1 (stereo not given) | 120 (≈ 269 µM) |
| COc1ccccc1C1=NN(c2ccccc2)C(c2cccc(Cl)c2Cl)C1 (stereo not given) | 125 (≈ 315 µM) |
| Clc1ccc(C2=NN(c3ccccc3)C(c3cccc(Cl)c3Cl)C2)cc1 (stereo not given) | 120 (≈ 299 µM) |

These compounds were tested on Aspergillus niger (assay: Antifungal activity against Aspergillus niger after 72 hrs by serial dilution method). Settings: not given.
Format: functional

| Compound | MIC90 [µg/mL] |
| --- | --- |
| COc1ccccc1C1=NN(c2cccc(Cl)c2)C(c2cccc(Cl)c2Cl)C1 (stereo not given) | 50 (≈ 116 µM) |
| COc1cccc(C2=NN(c3cccc(Cl)c3)C(c3cccc(Cl)c3Cl)C2)c1 (stereo not given) | 60 (≈ 139 µM) |
| Cc1ccc(C2=NN(c3ccccc3)C(c3cccc(Cl)c3Cl)C2)cc1 (stereo not given) | 75 (≈ 197 µM) |
| Fc1ccc(C2=NN(c3cccc(Cl)c3)C(c3cccc(Cl)c3Cl)C2)cc1 (stereo not given) | 30 (≈ 71.5 µM) |
| NYSTATIN | 25 |
| Clc1cccc(N2N=C(c3ccc4c(c3)OCO4)CC2c2cccc(Cl)c2Cl)c1 (stereo not given) | 120 (≈ 269 µM) |
| COc1ccccc1C1=NN(c2ccccc2)C(c2cccc(Cl)c2Cl)C1 (stereo not given) | 40 (≈ 101 µM) |
| Clc1ccc(C2=NN(c3ccccc3)C(c3cccc(Cl)c3Cl)C2)cc1 (stereo not given) | 25 (≈ 62.2 µM) |
